Reference: patent US10774080B2, “Pyrimidine compound as JAK kinase inhibitor” (THERAVANCE BIOPHARMA R&D IP, LLC, priority 2017, dated 2020)

Assays:
CCL2 gene expression = assay: Assay 7: ex vivo JAK PD assay, freshly excised human skin, CCL2; settings: 0.5% ointment, about 40 hours continuous exposure, Th1-skewed stimulation (TNFα, IFNγ, IL-12), vs vehicle
Procedure: Assay 7: Ex Vivo JAK Pharmacodynamic (PD) Assay Using Human Freshly Excised Skin An ex vivo JAK pharmacodynamics (PD) assay was conducted using human isolated skin tissue. The PD assay used fresh human skin (dermatome of 750 μm thickness) that was mounted in static Franz cells with a surface area of ˜0.5 cm^2. The receiver chambers of the Franz cells were filled with warm (37° C.) cornification media and placed in an incubator at 37° C. The skin was topically dosed with 10 μL ([…]) of compound (I) or vehicle and was left undisturbed overnight (˜24 hours). The next day, with no re-application of the test compound or vehicle, the media was replaced with a Th1-skewed stimulation cocktail consisting of TNFα, IFNγ and IL-12. The skin was left undisturbed for an additional 16 hours, and then harvested and processed for RNA extraction and qPCR of biomarkers: CXCL10, CCL2. GAPDH was used as an internal standard. The compound (I) was formulated in an ointment formulation at 0.5% strength. A total of three skin donors (tested in quadruplicates/sample/treatment) were used. Treatment effect was calculated as the percent increase or decrease in stimulation compared to the vehicle group. [table]

[1] = Assay 8: human skin permeability assay (MedFlux-HT flow-through diffusion cell); type: in vitro ADME; settings: 0.5% Ointment
Procedure: Assay 8: Human Skin Permeability Assay The objective of this experiment was to assess the percutaneous absorption of test compounds through human skin following topical application. The model uses excised human skin mounted in specially designed diffusion chambers (static or flow-through) that allow the skin to be maintained at a temperature and humidity that match real use conditions. The formulation was applied to the surface of the skin and the penetration of the drug is measured by monitoring its rate of appearance in the receptor solution flowing underneath the skin samples. This in vitro system allows carefully control of many of the potential variables involved in topical application, such as dosing volumes, humidity, temperature, drug stability, and skin thickness. […] This system was developed to specifically minimize the dosing area during in vitro experiments, thus allowing more dosing replications within the limited surface area of ex vivo human skin. The diffusion cells were placed in cell warming supports and heated using a circulating water bath in order to maintain the skin surface temperature at approx. 32° C. The cells were connected to multi-channel peristaltic pumps and maintained at a flow-rate of approximately 10 μL/min (600 μL/hr) for a continuous flow of receiver fluid directly under the skin. Following continuous sampling over 24 h, samples were assayed for test compound levels by LC-MS/MS. The test compound was detected in receiver fluid from […] following application of test ointment formulation (n=5). The ointment used is disclosed in Assay 7. The receiver fluid was PBS with 0.1% Brij.

[2] = tested on: IL-2 stimulated STAT5 phosphorylation in Tall-1 human T cell line; assay: Assay 11: inhibition of IL-2 stimulated pSTAT5 in Tall-1 T cells; type: cell-based; settings: read-out: pIC50 for inhibition of IL-2 induced STAT5 phosphorylation (converted)
Procedure: Assay 11: Inhibition of IL-2 Stimulated pSTAT5 in Tall-1 T Cells
The potency of test compounds for inhibition of interleukin-2 (IL-2) stimulated STAT5 phosphorylation was measured in the Tall-1 human T cell line (DSMZ) using AlphaLisa. Because IL-2 signals through JAK1/3, this assay provides a measure of JAK1/3 cellular potency.
Phosphorylated STAT5 was measured via the AlphaLISA SureFire Ultra pSTAT5 (Tyr694/699) kit (PerkinElmer).
Human T cells from the Tall-1 cell line were cultured in a 37° C., 5% CO2 humidified incubator in RPMI (Life Technologies) supplemented with 15% Heat Inactivated Fetal Bovine Serum (FBS, Life Technologies), 2 mM Glutamax (Life Technologies), 25 mM HEPES (Life Technologies) and 1× Pen/Strep (Life Technologies). […] Phosphorylated STAT5 was measured via the pSTAT5 AlphaLisa kit (PerkinElmer). […] Luminescence was measured with excitation at 689 nm and emission at […] using an EnVision plate reader (PerkinElmer) under green filtered <100 lux light.
To determine the inhibitory potency of test compounds in response to IL-2, the average emission intensity of beads bound to pSTAT5 was measured in a human T cell line. IC50 values were determined from analysis of the inhibition curves of signal intensity versus compound concentration. Data are expressed as pIC50 (negative decadic logarithm IC50) values (mean±standard deviation).

CCS(=O)(=O)N1[C@@H]2CCC[C@H]1C[C@H](N(C)c1nc(CO)c(F)c(Nc3cc(C)[nH]n3)n1)C2 [Compound (I), (2-(((1R,3s,5S)-9-(ethylsulfonyl)-9-azabicyclo[3.3.1]nonan-3-yl)(methyl)amino)-5-fluoro-6-((5-methyl-1H-pyrazol-3-yl)amino)pyrimidin-4-yl)methanol]
PD-% Inhibition (mean ± SD) CCL2 (CCL2 gene expression): 61.3% | permeability in human skin assay (in words) [1]: good permeability | MedFlux Permeability, flux permeating through 1 cm2 of human skin (Mean) ([1]; n=5, receiver fluid PBS with 0.1% Brij): 39.1 ng/cm2/sec | permeability in human skin assay (in words) ([1]; listed as compound (I)): adequate permeability | IC50 [2]: 3.98 nM
